Drawing on patent US8895585B2, “Nicotinamide derivative or salt thereof” (FUJIFILM Corporation, priority 2010, dated 2014), this text covers IC50 for 30 compounds.

One experiment relates to THP-1 cells. Put plainly: TNFα generation assay. The class given is cell-based, human. The following applies: Homo sapiens, THP-1, THP-1 cells; Table 22; read-out: IC50 in TNFα generation assay. In short, it runs like this: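 THP-1 cells differentiated to macrophage-like cells with 10 ng/ml IFN-γ for 2 days, preincubated with compound 30 min at room temperature, then cultured 7 h on plates coated with human IgG (10 μg/ml). Secreted TNFα measured by ELISA or AlphaLISA.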

For experiment [1], the target named is T1, glutathione S-transferase (GST)-fused full-length human Syk protein (Homo sapiens, UniProt P43405).
T1 construct: (GST)-fused full-length human Syk protein; GST (glutathione S-transferase); purchased Carna Biosciences
The experiment in a line: Syk enzyme assay. It is filed as biochemical. To be noted: Syk enzyme assay, Test Example 1; read-out: IC50 of Syk-inhibitory activity. In short, it runs like this:
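Baculovirus-expressed enzyme (1.2 ng) was preincubated with compound in HEPES pH 7.0/MgCl2/DTT buffer, 2 min shaking then 13 min at room temperature. Biotin-EDPDYEWPSA-NH2 (0.4 μM final) and ATP (27 μM final) were added for 40 min at room temperature. EDTA stop, streptavidin-XL/PT66-K TR-FRET at 615/665 nm gave IC50.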

pIC50: −log10 of the molar value.

On to `C[C@H](N)[C@@H](CC1CC1)Nc1nc(Nc2ccc3ncccc3c2)c(C(N)=O)cc1F` [Example 006-217, 6-(((2R,3S)-3-amino-1-cyclopropylbutan-2-yl)amino)-5-fluoro-2-((quinolin-6-yl)amino)nicotinamide], for which the pIC50 with THP-1 cells was above 7.19; in experiment [1], above 8.00.
In the same order, the values of `NC(=O)c1cc(F)c(N[C@@H]2CCCC[C@@H]2N)nc1Nc1ccnc(-n2ccnn2)c1` (relative stereo) [Example 006-126, 2-((2-(1H-1,2,3-triazol-1-yl)pyridin-4-yl)amino)-6-((cis-2-aminocyclohexyl)amino)-5-fluoronicotinamide] are above 7.19 and above 8.00.
In the same order, the values of `CCOc1ncc(Nc2nc(N[C@@H]3CCCC[C@@H]3N)c(F)cc2C(N)=O)cc1C` [Example 006-497, 6-(((1R,2S)-2-aminocyclohexyl)amino)-2-((6-ethoxy-5-methylpyridin-3-yl)amino)-5-fluoronicotinamide] are 6.89 to 7.19 and above 8.00.
In the same order, the values of `CC[C@@H](Nc1nc(Nc2cccc3c2cnn3C)c(C(N)=O)cc1F)[C@H](C)N` [Example 006-268, 6-(((2S,3R)-2-aminopentan-3-yl)amino)-5-fluoro-2-((1-methyl-1H-indazol-4-yl)amino)nicotinamide] are above 7.19 and above 8.00.
For `NC(=O)c1cc(F)c(N[C@@H]2CCCC[C@@H]2N)nc1Nc1cnc2cccnc2c1` [Example 004-002], the pIC50 in the experiment on THP-1 cells was above 7.19; in experiment [1], 7.30 to 8.00.
Consider `CC[C@@H](Nc1nc(Nc2ccnc(-c3ccco3)c2)c(C(N)=O)cc1F)[C@H](C)N` [Example 006-256, 6-(((2S,3R)-2-aminopentan-3-yl)amino)-5-fluoro-2-((2-(furan-2-yl)pyridin-4-yl)amino)nicotinamide], for which the pIC50 in the experiment on THP-1 cells is 6.89 to 7.19; in experiment [1], above 8.00.
On to `Cn1ccc2c(Nc3nc(N[C@H](Cc4ccccc4)C(N)=O)c(F)cc3C(N)=O)ccnc21` [Example 004-044], for which the pIC50 with THP-1 cells is 6.70 to 6.89; in experiment [1], above 8.00.
In the same order, the values of `CCCC[C@H](CN)Nc1nc(Nc2cncc(-n3cccn3)c2)c(C(N)=O)cc1F` [Example 006-294, (R)-2-((5-(1H-pyrazol-1-yl)pyridin-3-yl)amino)-6-((1-aminohexan-2-yl)amino)-5-fluoronicotinamide] are 6.89 to 7.19 and 7.30 to 8.00.
In the same order, the values of `CCC[C@@H](Nc1nc(Nc2cncc3ccccc23)c(C(N)=O)cc1F)[C@H](C)N` [Example 006-241, 6-(((2S,3R)-2-aminohexan-3-yl)amino)-5-fluoro-2-((isoquinolin-4-yl)amino)nicotinamide] are 6.89 to 7.19 and above 8.00.
In the same order, the values of `NC(=O)c1cc(F)c(N[C@@H]2CCCC[C@@H]2N)nc1Nc1cncc(-c2cccc([N+](=O)[O-])c2)c1` (relative stereo) [Example 004-215, 6-(cis-2-aminocyclohexylamino)-5-fluoro-2-((5-(3-nitrophenyl)pyridin-3-yl)amino)nicotinamide] are 6.89 to 7.19 and above 8.00.
For `CC[C@@H](Nc1nc(Nc2cncc(C3CC3)c2)c(C(N)=O)cc1F)[C@H](C)N` [Example 006-255, 6-(((2S,3R)-2-aminopentan-3-yl)amino)-2-((5-cyclopropylpyridin-3-yl)amino)-5-fluoronicotinamide], the pIC50 is 6.89 to 7.19 in the experiment on THP-1 cells and above 8.00 in experiment [1].
The matching figures for `CC(=O)c1cncc(Nc2nc(N[C@@H]3CCCC[C@@H]3N)c(F)cc2C(N)=O)c1` (relative stereo) [Example 004-132, 2-((5-acetylpyridin-3-yl)amino)-6-(cis-2-aminocyclohexylamino)-5-fluoronicotinamide]: 6.89 to 7.19 and 7.30 to 8.00.
In the same order, the values of `NC(=O)c1cc(F)c(N[C@@H]2CCCC[C@@H]2N)nc1Nc1cncc2[nH]ccc12` (relative stereo) [Example 004-062] are above 7.19 and above 8.00.
The matching figures for `CC[C@@H](Nc1nc(Nc2ccc3c(cnn3C)c2)c(C(N)=O)cc1F)[C@H](C)N` [Example 006-210, 6-(((2S,3R)-2-aminopentan-3-yl)amino)-5-fluoro-2-((1-methyl-1H-indazol-5-yl)amino)nicotinamide]: above 7.19 and above 8.00.
Consider `NC(=O)c1cc(F)c(N[C@@H]2CCCC[C@@H]2N)nc1Nc1cccc2cnccc12` (relative stereo) [Example 004-159, 6-(cis-2-aminocyclohexylamino)-5-fluoro-2-((isoquinolin-5-yl)amino)nicotinamide], for which the pIC50 with THP-1 cells is 6.89 to 7.19; in experiment [1] it was above 8.00.
The matching figures for `CCOc1ncc(Nc2nc(N[C@@H]3CCCC[C@@H]3N)c(F)cc2C(N)=O)cc1-n1nccn1` [Example 006-495, 6-(((1R,2S)-2-aminocyclohexyl)amino)-2-((6-ethoxy-5-(2H-1,2,3-triazol-2-yl)pyridin-3-yl)amino)-5-fluoronicotinamide]: 6.70 to 6.89 and above 8.00.
In the same order, the values of `CCCC[C@@H](Nc1nc(Nc2cnc(C)c(-n3nccn3)c2)c(C(N)=O)cc1F)[C@H](C)N` [Example 006-390, 6-(((2S,3R)-2-aminoheptan-3-yl)amino)-5-fluoro-2-((6-methyl-5-(2H-1,2,3-triazol-2-yl)pyridin-3-yl)amino)nicotinamide] are 6.89 to 7.19 and above 8.00.
The matching figures for `NC(=O)c1cc(F)c(N[C@@H]2CCCC[C@@H]2N)nc1Nc1cncc(F)c1` (relative stereo) [Example 004-105, 6-(cis-2-aminocyclohexylamino)-5-fluoro-2-((5-fluoropyridin-3-yl)amino)nicotinamide]: 6.70 to 6.89 and 7.30 to 8.00.
As for `COc1cc(Nc2nc(N[C@H](CC3CC3)[C@H](C)N)c(F)cc2C(N)=O)ccn1` [Example 006-355, 6-(((2R,3S)-3-amino-1-cyclopropylbutan-2-yl)amino)-5-fluoro-2-((2-methoxypyridin-4-yl)amino)nicotinamide], the figures for the pIC50 (in the experiment on THP-1 cells; in experiment [1]) were 6.89 to 7.19 and above 8.00, respectively.
For the compound `NC(=O)c1cc(F)c(N[C@@H]2CCCC[C@@H]2N)nc1Nc1cncc(-c2ccc(F)cc2F)c1` (relative stereo) [Example 004-181, 6-(cis-2-aminocyclohexylamino)-2-((5-(2,4-difluorophenyl)pyridin-3-yl)amino)-5-fluoronicotinamide], the pIC50 with THP-1 cells was 6.70 to 6.89; in experiment [1], above 8.00.
In the case of `CCn1ncc2cc(Nc3nc(N[C@H](C4CC4)[C@H](C)N)c(F)cc3C(N)=O)ccc21` [Example 006-471, 6-(((1R,2S)-2-amino-1-cyclopropylpropyl)amino)-2-((1-ethyl-1H-indazol-5-yl)amino)-5-fluoronicotinamide], the pIC50 is above 7.19 in the experiment on THP-1 cells and above 8.00 in experiment [1].
The matching figures for `C[C@H](N)[C@@H](C)Nc1nc(Nc2ccc3cccnc3c2)c(C(N)=O)cc1F` (racemic) [Example 006-182, 6-(((2R,3S)-3-aminobutan-2-yl)amino)-5-fluoro-2-((quinolin-7-yl)amino)nicotinamide 6-(((2S,3R)-3-aminobutan-2-yl)amino)-5-fluoro-2-((quinolin-7-yl)amino)nicotinamide]: 6.70 to 6.89 and above 8.00.
In the same order, the values of `COc1ncc(Nc2nc(N[C@@H]3CCCC[C@@H]3N)c(F)cc2C(N)=O)c2cc[nH]c12` [Example 004-235] are 6.89 to 7.19 and above 8.00.
In the same order, the values of `NCC(CCC(F)(F)F)Nc1nc(Nc2ccc3ncccc3c2)c(C(N)=O)cc1F` (stereo not drawn) [Example 006-304, 6-((1-amino-5,5,5-trifluoropentan-2-yl)amino)-5-fluoro-2-((quinolin-6-yl)amino)nicotinamide] are 6.70 to 6.89 and above 8.00.
`NC(=O)c1cc(F)c(NC2CCCCC2N)nc1Nc1ccc2c(F)nn(CCF)c2c1` (stereo not drawn) [Example 002-205]: the pIC50 was 6.89 to 7.19 in the experiment on THP-1 cells and above 8.00 in experiment [1].
In the same order, the values of `CCCC[C@H](CN)Nc1nc(Nc2ccc3ncccc3c2)c(C(N)=O)cc1F` [Example 006-274, (R)-6-((1-aminohexan-2-yl)amino)-5-fluoro-2-(quinolin-6-ylamino)nicotinamide] are 6.89 to 7.19 and above 8.00.
In the same order, the values of `NC(=O)c1cc(F)c(N[C@@H]2CCCC[C@@H]2N)nc1Nc1cncc(-c2ccncc2)c1` [Example 004-104] are 6.70 to 6.89 and 7.30 to 8.00.
The matching figures for `NC(=O)c1cc(F)c(N[C@@H]2CCCC[C@@H]2N)nc1Nc1cncc(-c2ccsc2)c1` (relative stereo) [Example 004-077, 6-(cis-2-aminocyclohexylamino)-5-fluoro-2-((5-(thiophene-3-yl)pyridin-3-yl)amino)-nicotinamide]: 6.89 to 7.19 and above 8.00.
In the case of `NC(=O)c1cc(F)c(N[C@@H]2CCCC[C@@H]2N)nc1Nc1cncc(-c2ccc3[nH]ccc3c2)c1` (relative stereo) [Example 004-076, 2-((5-(1H-indol-5-yl)pyridin-3-yl)amino)-6-(cis-2-aminocyclohexylamino)-5-fluoronicotinamide], the figures for the pIC50 (with THP-1 cells; in experiment [1]) were 6.70 to 6.89 and above 8.00, respectively.
The matching figures for `CCn1ncc2c(Nc3nc(N[C@H](CC4CC4)[C@H](C)N)c(F)cc3C(N)=O)cccc21` [Example 006-508, 6-(((2R,3S)-3-amino-1-cyclopropylbutan-2-yl)amino)-2-((1-ethyl-1H-indazol-4-yl)amino)-5-fluoronicotinamide]: 6.89 to 7.19 and above 8.00.
